{"source": "patent US20240393292A1", "about": "“ALLERGY ANTIGEN AND EPITOPE THEREOF” (HOYU CO., LTD., priority 2019, published 2024)", "key": {"[1]": {"tested_on": "IgE antibodies from patients having allergies to each food", "assay": "Confirmation of epitope cross-reactivity by ELISA with biotinylated peptides", "assay_type": "binding, human", "description": "Amino acids other than amino acids important for maintaining binding to IgE antibodies, in each of the epitope sequences found in the wheat proteins in Table 2 were defined as any given amino acid (X). NCBI was searched for proteins having the key sequences having the amino acid residues X in cooking ingredient allergens carried in common by each of the patients. As a result, an amino acid sequence contained in a sequence in each food described in the column “Food with which cross-reactivity was confirmed” in Table 2 was identified as one example.\nThe binding activity of peptides comprising the amino acid sequences described in the column “Synthesis sequence” and the rightmost column “SEQ ID NO” of Table 2 against IgE antibodies from patients having allergies to each food described in the column “Food with which cross-reactivity was confirmed” in Table 2 was confirmed by ELISA. The peptides were synthesized such that the peptides were N-terminally biotinylated by the Fmoc method.\nTo be specific, ELISA was carried out according to the following procedure. • (1) The concentrations of the biotinylated peptides were adjusted to 10 μg/mL with PBST (0.1% Tween 20). • (2) Each peptide solution was added at 20 μL to each well of a 384-well plate coated with streptavidin, and shaken at room temperature for one hour. After collection of the solution, the wells were washed with PBST five times. • (3) Pierce Protein-Free (PBS) Blocking Buffer (produced by Thermo) was added at 40 μL thereto and shaken at room temperature for one hour. After removal of the solution, the wells were washed with PBST five times. • (4) 2% serum/Canget SignalSolution I (produced by TOYOBO) was added at 20 μL thereto and shaken at room temperature for one hour. After removal of the solution, the wells were washed with PBST five times. • (5) A diluted secondary antibody solution (1:10000, Canget SignalSolution II (produced by TOYOBO)) was added at 20 μL thereto and shaken at room temperature for one hour. After removal of the solution, the wells were washed with PBST five times. • (6) 1-Step Ultra TMB-ELISA (produced by Thermo) was added at 20 μL thereto and shaken at room temperature for 15 minutes. • (7) 2 M H2SO4 was added at 20 μL thereto. Absorbance at 450 nm was measured.\nPeptides having these amino acid sequences were prepared by the same procedure as described in Example 4 (A), and the presence or absence of binding thereto of IgE antibodies present in the serum of an allergic patient and the serum of a nonallergic subject was measured. The serum of two nonallergic subjects was measured, and values obtained by dividing the measurement values by an average value thereof were used.\nThe bar graph of each figure depicts “absorbance of the allergic patient/absorbance of the nonallergic patient (healthy subject)”. The names of the cooking ingredients described in each graph are the names of cooking ingredients containing a polypeptide comprising an amino acid sequence serving as the basis of each synthetic sequence used."}, "[2]": {"tested_on": "IgE antibodies from patients", "assay": "Wheat epitope mapping (3): alanine/glycine scanning", "assay_type": "binding, human", "details": "from analysis of epitope mapping (A) to (C); many samples", "protocol": "From the amino acid sequences identified above in (A), a library of peptide fragments in which amino-terminal amino acids were substituted one by one by alanine (or glycine when the original amino acid was alanine) according to a technique called alanine/glycine scanning (Non Patent Literature 5) was prepared by the same technique as described above. The presence or absence of binding of an IgE antibody present in the serum of a patient to each peptide fragment was measured by the same technique as described above.\nChemiluminescence intensity in images obtained by measurement was converted into a numeric value in the same manner as in (A). Numeric values determined from images obtained from secondary antibody measurement values were used as control values. The control value of each peptide was subtracted from numeric values determined from images obtained from results about the serum of 49 patients. When values obtained using the sequences (SEQ ID NOs: 29, 131, 191, 281, 346, 414, 493, 562, 640, 706, 776, 899, 974, 1010, 1089, 1142, 1166, 1209, 1257, 1297, 1367, 1403, 1508, 1566, 1598, 1608, 1685, 1753, 1789, 1836, 1895, 1977, 2004, 2027, 2068, 2154, 2217, 2265, 2309, 2342, 2419, 2491, 2545, 2613, 2631, 2674, 2701, 2774, 2809 and 2830) serving as the basis of alanine/glycine scanning were defined as 100%, it was determined that: a peptide having a value of the difference that was less than 30% had no binding activity against IgE antibodies; a peptide having a value of the difference that was 30% or more and less than 50% had binding activity, albeit poor, against IgE antibodies; a peptide having a value of the difference that was 50% or more and less than 70% had binding activity, albeit somewhat poor, against IgE antibodies; and a peptide having a value of the difference that was 70% or more had equivalent or good binding activity against IgE antibodies and was thus a peptide had remaining binding activity against IgE antibodies.\nBy analysis of the results of (A) to (C), common sequences important for exertion of original antigenicity were found in regions important for binding to IgE antibodies from patients, in the sequences serving as the basis of alanine/glycine scanning."}, "[3]": {"details": "synthetic sequence, Graph No. 3, epitope of patient P8"}}, "note": "Entries after “also recorded” stand apart in the source; their conditions may differ.", "data": [{"substance": "29 (QQILWYHQQQPIQQQ; REGION 1..15: note = epitope) [compound 29]", "values": [{"measurement": "Food in which cross-reactivity was confirmed", "setting": "[1]; serum IgE of patient P7 (WDEIA), epitope E1, LMW-D8(LMW-GS) B2BZD1, Spot No. 9, key sequence XXXXXXXQXXXIQQX (SEQ ID NO 45), Graph No. 1", "value": "Wheat"}, {"measurement": "Food in which cross-reactivity was confirmed", "setting": "[1]; serum IgE of patient P13 (WDEIA), epitope E1, LMW-D8(LMW-GS) B2BZD1, Spot No. 9, key sequence XXXXXYXQXXXIQQX (SEQ ID NO 62), Graph No. 1", "value": "Wheat"}, {"measurement": "Food in which cross-reactivity was confirmed", "setting": "[1]; serum IgE of patient P36 (WDEIA), epitope E1, LMW-D8(LMW-GS) B2BZD1, Spot No. 9, key sequence XXXXXXXQXXXIQQX (SEQ ID NO 122), Graph No. 1", "value": "Wheat"}]}, {"substance": "2881 (QEQQQYYPQQQAFFL; REGION 1..15: note = epitope) [compound 2881]", "values": [{"measurement": "Food in which cross-reactivity was confirmed", "setting": "[1]; serum IgE of patient P4 (WDEIA), epitope E3, LMW-D8(LMW-GS) B2BZD1, Spot No. 9, key sequence XXXQQXXPQQXXXXX (SEQ ID NO 203), Graph No. 1", "value": "Orchard grass"}, {"measurement": "Food in which cross-reactivity was confirmed", "setting": "[1]; serum IgE of patient P10 (WDEIA), epitope E3, LMW-D8(LMW-GS) B2BZD1, Spot No. 9, key sequence XXXQQXXPQQQXXXX (SEQ ID NO 220), Graph No. 1", "value": "Orchard grass"}, {"measurement": "Food in which cross-reactivity was confirmed", "setting": "[1]; serum IgE of patient P32 (WDEIA), epitope E3, LMW-D8(LMW-GS) B2BZD1, Spot No. 9, preferred sequence XXQQQXFPQQQXXXX (SEQ ID NO 268), Graph No. 1", "value": "Orchard grass"}]}, {"substance": "2889 (ILFEETLYQS; REGION 1..10: note = epitope) [compound 2889]", "values": [{"measurement": "Food in which cross-reactivity was confirmed", "setting": "[1]; epitope E10 (Fructose-bisphosphate aldolase W5CCA9), listed under patient P8, Graph No. 3", "value": "Wheat/rye/barley"}]}, {"substance": "2910 (SLAEYTVRTLQRTVP; REGION 1..15: note = epitope) [compound 2910]", "values": [{"measurement": "Food in which cross-reactivity was confirmed", "setting": "[1]; Graph No. 2, synthetic sequence listed under patient P16", "value": "Wheat/rye/barley/; also recorded: timothy"}]}, {"substance": "2922 (GIDKRV; REGION 1..6: note = epitope) [compound 2922]", "values": [{"measurement": "Food in which cross-reactivity was confirmed", "setting": "[1]; [3]", "value": "Wheat/barley"}]}, {"substance": "2923 (KRVIERFEK; REGION 1..9: note = epitope) [compound 2923]", "values": [{"measurement": "Food in which cross-reactivity was confirmed", "setting": "[1]; [3]", "value": "Wheat/barley"}]}, {"substance": "GLFGTN (GIFGTN)", "values": [{"measurement": "Food in which cross-reactivity was confirmed", "setting": "[1]; synthetic sequence tested for IgE binding by ELISA, Graph No. 3, epitope row of patient P8", "value": "Wheat/barley/rye 3"}]}, {"substance": "NEPSQLSLDQNAQGL", "values": [{"measurement": "Food in which cross-reactivity was confirmed", "setting": "[1]; epitope E16 (Fructose-bisphosphate aldolase W5CCA9, Spot No. 4), patient P21, key sequence XXXXQXXXDQNXXXX (SEQ ID NO 1144), Graph No. 2", "value": "timothy"}]}, {"substance": "QPIQ (REGION 1..4: note = epitope) [SEQ ID NO: 30]", "values": [{"measurement": "short polypeptide confirmed as epitope binding to IgE antibodies", "setting": "[2]", "value": "confirmed as epitopes binding to IgE antibodies in many samples"}]}, {"substance": "SEQ ID NO: 58: polypeptide consisting of 4 amino acid residues, among sequences of (E1) (PIQQ; REGION 1..4: note = epitope)", "values": [{"measurement": "short polypeptide confirmed as epitope binding to IgE antibodies", "setting": "[2]", "value": "confirmed as epitopes binding to IgE antibodies in many samples"}]}, {"substance": "SEQ ID NO: 61: polypeptide consisting of 4 amino acid residues, among sequences of (E1) (QPIQ; REGION 1..4: note = epitope)", "values": [{"measurement": "short polypeptide confirmed as epitope binding to IgE antibodies", "setting": "[2]", "value": "confirmed as epitopes binding to IgE antibodies in many samples"}]}, {"substance": "SEQ ID NO: 222: polypeptide consisting of 4 amino acid residues, among sequences of (E3) (QQPF; REGION 1..4: note = epitope)", "values": [{"measurement": "short polypeptide confirmed as epitope binding to IgE antibodies", "setting": "[2]", "value": "confirmed as epitopes binding to IgE antibodies in many samples"}]}, {"substance": "SEQ ID NO: 238: polypeptide consisting of 4 amino acid residues, among sequences of (E3) (PFPQ; REGION 1..4: note = epitope)", "values": [{"measurement": "short polypeptide confirmed as epitope binding to IgE antibodies", "setting": "[2]", "value": "confirmed as epitopes binding to IgE antibodies in many samples"}]}, {"substance": "SEQ ID NO: 345: polypeptide consisting of 4 amino acid residues, among sequences of (E4) (QPFP; REGION 1..4: note = epitope)", "values": [{"measurement": "short polypeptide confirmed as epitope binding to IgE antibodies", "setting": "[2]", "value": "confirmed as epitopes binding to IgE antibodies in many samples"}]}]}
